Measured values: ChEMBL document CHEMBL4725408, “Antibacterial Spiropyrimidinetriones with N-Linked Azole Substituents on a Benzisoxazole Scaffold Targeting DNA Gyrase” (J Med Chem, 2020)
In brackets after ≈: the same amount, converted by molar mass.

Legend:
[1] = Solubility of the compound by high throughput solubility assay; assay type: physicochemical
Staphylococcus aureus [2] = test: Antibacterial activity against methicillin sensitive Staphylococcus aureus ARC516 in presence of human serum by broth microdilution method; assay type: functional
Staphylococcus aureus [3] = test: Antibacterial activity against methicillin sensitive Staphylococcus aureus ARC516 by broth microdilution method; assay type: functional
Streptococcus pyogenes = test: Antibacterial activity against Streptococcus pyogenes ARC838 by broth microdilution method; assay type: functional
[4] = n-octanol/phosphate buffer partition coefficient, log D of the compound at pH 7.4 measured after 1 hr by UV-LC/MS based shake flask method; assay type: physicochemical
Staphylococcus aureus [5] = test: Antibacterial activity against methicillin/quinolone-resistant Staphylococcus aureus ARC517 by broth microdilution method; assay type: functional
Haemophilus influenzae = test: Antibacterial activity against Haemophilus influenzae ARC737 by broth microdilution method; assay type: functional
[6] = Inhibition of recombinant Escherichia coli DNA gyrase AB expressed in Escherichia coli BL21 (DE3) using relaxed pJT519 DNA as substrate preincubated for 20 mins followed by 5'-BODIPY-TMR-TTCTTCTTCT addition and measured after 1 hr by fluorescence anisotropy
[7] = Protein binding in human plasma assessed as unbound fraction at 10 uM measured after 16 hrs by LC-MS/MS based equilibrium dialysis method; assay type: ADME, cell-free
Escherichia coli = test: Antibacterial activity against Escherichia coli ARC523 by broth microdilution method; assay type: functional
Streptococcus pneumoniae = test: Antibacterial activity against Streptococcus pneumoniae ARC548 by broth microdilution method; assay type: functional
[8] = Ratio of MIC for antibacterial activity against methicillin/quinolone-resistant Staphylococcus aureus ARC517 to protein binding in human plasma assessed as unbound fraction
L5178Y = test: Genotoxicity in mouse L5178Y cells using DAPI staining by microscopy based micronucleation assay; assay type: toxicity, cell-based

Row | Compound | solubility [1] [µM] | MIC (Staphylococcus aureus [2]) [µM] | MIC (Staphylococcus aureus [3]) [µM] | MIC (Streptococcus pyogenes) [µM] | logD at 1 h [4] | MIC (Staphylococcus aureus [5]) [µM] | MIC (Haemophilus influenzae) [µM] | IC50 [6] [nM] | fraction unbound at 16 h, 10 µM [7] | MIC (Escherichia coli) [µM] | MIC (Streptococcus pneumoniae) [µM] | Ratio [8] | NOAEL (L5178Y) [µM]
1 | COCCOc1ncnn1-c1noc2c(F)c3c(cc12)CC1(C(=O)NC(=O)NC1=O)[C@H]1[C@H](C)O[C@H](C)CN31 | 640 (≈ 339 µg/mL) | 1.6 | 0.39 (≈ 0.206 µg/mL) | < 0.2 | 1.7 | 1.6 (≈ 0.847 µg/mL) | 0.39 (≈ 0.206 µg/mL) | 320 | 0.12 | 100 (≈ 52.9 µg/mL) | < 0.2 |  | 
2 | C[C@@H]1CN2c3c(cc4c(-n5nccn5)noc4c3F)CC3(C(=O)NC(=O)NC3=O)[C@H]2[C@H](C)O1 | 810 (≈ 369 µg/mL) | 1.56 | < 0.2 |  | 1.95 | 0.78 (≈ 0.355 µg/mL) |  | 240 | 0.031 | 12.5 (≈ 5.69 µg/mL) |  | 25 | 
3 | C[C@@H]1CN2c3c(cc4c(-n5ncnc5N)noc4c3F)CC3(C(=O)NC(=O)NC3=O)[C@H]2[C@H](C)O1 | 460 (≈ 216 µg/mL) | < 0.2 | 0.049 (≈ 0.0231 µg/mL) | 0.098 (≈ 0.0461 µg/mL) | 1.9 | < 0.2 | 0.39 (≈ 0.183 µg/mL) | 75 | 0.11 | 12 (≈ 5.65 µg/mL) | 0.098 (≈ 0.0461 µg/mL) |  | 6
4 | C[C@@H]1CN2c3c(cc4c(-n5ncnc5NCC(=O)N5CC[C@H](N(C)C)C5)noc4c3F)CC3(C(=O)NC(=O)NC3=O)[C@H]2[C@H](C)O1 | 880 (≈ 550 µg/mL) | 0.2 | 0.2 (≈ 0.125 µg/mL) | 0.39 (≈ 0.244 µg/mL) | 1.7 | 2.2 (≈ 1.37 µg/mL) | 1.6 (≈ 0.999 µg/mL) | 180 | 0.26 | 50 (≈ 31.2 µg/mL) | < 0.2 |  | 12
5 | C[C@@H]1CN2c3c(cc4c(-n5ncnc5NCCN(C)C)noc4c3F)CC3(C(=O)NC(=O)NC3=O)[C@H]2[C@H](C)O1 | > 1000 | 0.78 | 0.78 (≈ 0.422 µg/mL) | 0.39 (≈ 0.211 µg/mL) | 1.4 | 6.2 (≈ 3.36 µg/mL) | 1.6 (≈ 0.866 µg/mL) | 150 | 0.53 | 50 (≈ 27.1 µg/mL) | 0.39 (≈ 0.211 µg/mL) |  | > 400
6 | CO/N=C1\CN(c2nc3c(cc2F)c(=O)c(C(=O)O)cn3C2CC2)CC1CN (configuration not stated) [GEMIFLOXACIN] |  |  |  |  |  |  |  |  |  |  |  |  | 3
7 | C[C@@H]1CN2c3c(cc4c(-n5ccnc5)noc4c3F)CC3(C(=O)NC(=O)NC3=O)[C@H]2[C@H](C)O1 (racemic) | 12 (≈ 5.45 µg/mL) | 12.5 | 1.56 (≈ 0.709 µg/mL) |  | 2 | 12.5 (≈ 5.68 µg/mL) |  | 490 | 0.031 | 50 (≈ 22.7 µg/mL) |  | 400 | 
8 | C[C@@H]1CN2c3c(cc4c(-n5ncnc5NC[C@@H](C)O)noc4c3F)CC3(C(=O)NC(=O)NC3=O)[C@H]2[C@H](C)O1 | > 1000 | < 0.2 | 0.098 (≈ 0.0518 µg/mL) | < 0.2 | 1.9 | 0.63 (≈ 0.333 µg/mL) | 0.39 (≈ 0.206 µg/mL) | 160 | 0.13 | 25 (≈ 13.2 µg/mL) | < 0.2 |  | 12
9 | Cc1ncn(-c2noc3c(F)c4c(cc23)CC2(C(=O)NC(=O)NC2=O)[C@H]2[C@H](C)O[C@H](C)CN42)n1 | 29 (≈ 13.6 µg/mL) | 0.78 | 0.2 (≈ 0.0939 µg/mL) | 0.78 (≈ 0.366 µg/mL) | 1.9 | 0.78 (≈ 0.366 µg/mL) | 1.6 (≈ 0.751 µg/mL) | 1000 | 0.053 | 100 (≈ 46.9 µg/mL) | 3.1 (≈ 1.46 µg/mL) |  | 
10 | C[C@@H]1CN2c3c(cc4c(-n5ncnc5N(C)C)noc4c3F)CC3(C(=O)NC(=O)NC3=O)[C@H]2[C@H](C)O1 | > 1000 | 1.6 | 0.39 (≈ 0.194 µg/mL) | 0.78 (≈ 0.389 µg/mL) | 1.7 | 0.78 (≈ 0.389 µg/mL) | 1.6 (≈ 0.798 µg/mL) | 670 | 0.13 | 100 (≈ 49.8 µg/mL) | 1.6 (≈ 0.798 µg/mL) |  | 
11 | C[C@@H]1CN2c3c(cc4c(-n5ncnc5C#N)noc4c3F)CC3(C(=O)NC(=O)NC3=O)[C@H]2[C@H](C)O1 | 560 (≈ 269 µg/mL) | 0.39 | < 0.2 | 0.39 (≈ 0.187 µg/mL) | 2 | < 0.2 | 0.39 (≈ 0.187 µg/mL) | 320 | 0.076 | 6.2 (≈ 2.98 µg/mL) | 0.39 (≈ 0.187 µg/mL) |  | 
12 | C[C@@H]1CN2c3c(cc4c(-n5ncnc5N5CCOCC5)noc4c3F)CC3(C(=O)NC(=O)NC3=O)[C@H]2[C@H](C)O1 | > 1000 | 0.78 | 0.39 (≈ 0.211 µg/mL) | 0.78 (≈ 0.422 µg/mL) | 1.6 | 0.98 (≈ 0.53 µg/mL) | 1.6 (≈ 0.865 µg/mL) | 660 | 0.17 | 200 (≈ 108 µg/mL) | 1.6 (≈ 0.865 µg/mL) |  | 
